From US11793816B2, “Methods for enhancing cytotoxic cancer therapy through inhibition of ATG4B” (Northwestern University, priority 2019, dated 2023)

Legend:
[1] = tested on: LC3B, p62/SQSTM-1 and LAMP2 in GSC M83 and JK83 cells; test: Immunoblot of autophagy markers (LC3B, p62, LAMP2) in GSCs treated with AZD2014 and NSC; format: cell-based; conditions: NSC in the presence of AZD2014
Method: FIG. 5. A mTORC1/2 inhibitor AZD2014 inhibited cell survival, mTORC1 and mTORC2 activities in GSCs and glioma cells. (A) GSC M83 and JK83 and glioma cells U87 were treated with indicated concentration of AZD2014 for 72 h, then cell viability was evaluated. (B) GSC M83 and JK83 were treated with the indicated concentration of AZD2014 for 1 hr, or with 2 μM AZD2014 for the specified time. Cells were collected for immunoblot analysis. β-actin was used as a loading control; Results are representative of 2 independent experiments. *P<0.05, **P<0.01, paired two-way Student's t-test. Data are representative from three independent experiments with similar results.
FIG. 6. NSC enhanced the cytotoxicity of a mTORC1/2 inhibitor AZD2014 in GSCs. (A) GSC M83 and JK83 were exposed to DMSO control vs AZD2014 vs NSCs vs AZD2014 in combination with NSC for 72 hr. Cells were collected for immunoblot analysis using indicated antibodies. (B) Immunofluorescence analyses for LC3B puncta in GSC M83 and JK83 cells with indicated treatments. (C and D) GSC M83 and JK83 and/or neural progenitor cells (NPC) were treated as indicated in (A), cell viability was tested at 72 h after treatment (C), and cell apoptosis was measured by Annexin V FACS assay 48 h after treatment. Data are representative from three independent experiments with similar results. […]

[2] = tested on: GSC83 and GBM43 cells; test: Annexin V/propidium iodide flow cytometry after NSC, IR, TMZ alone or combined; format: cell-based; conditions: NSC combined with IR or/and TMZ vs single treatments, 48 hours

S=C(Nc1ccccn1)c1ccccn1 [NSC185058, N-pyridin-2-yl-pyridine-2-carbothioamide] was tested, and the “autophagy markers (LC3B conversion, p62 and LAMP2 degradation)” value [1] was “attenuated autophagy induction” and the “apoptotic cells (Annexin V/PI)” value [2] was “more apoptotic cells than single treatments”.
